According to paper PMC7287735 (Molecules, 2020):
Where two headings read alike, the source gives them in different places.

Columns and labels:
[1] = test system: HCoV-229E; assay: Anti-coronavirus cytoprotection assay (XTT, reduction of viral cytopathic effect) in MRC-5 cells; conditions: for activity against HCoV-229E at the tested concentrations: MRC-5 cells, high test concentration 100 µM; for Therapeutic Index (TC50/EC50): MRC-5/HCoV-229E
[2] = test system: MRC-5 cells; assay: Cellular toxicity to MRC-5 cells (XTT); conditions: 6 days, duplicate data points
[3] = Human coronavirus 229E, MRC5, 144 h, read-out: EC50 (effective concentration that reduced 50% of viral cytopathic effect), HCoV-229E in MRC-5 cells, 6 days, triplicate data points
[4] = listed as 5′-O-tetradecanoyl ester conjugate of FTC (9)

SMILES | EC50 [1, 3] | TC50 (toxic concentration that killed 50% of MRC-5 cells) [2] | activity against HCoV-229E at the tested concentrations [1] | other results
CCC(CC)COC(=O)[C@H](C)N[P@](=O)(OC[C@H]1O[C@@](C#N)(c2ccc3c(N)ncnn23)[C@H](O)[C@@H]1O)Oc1ccccc1 [Remdesivir (1), Remdesivir] | 0.067 ± 0.012 µM | > 2.0 µM | – | EC50 ([1]; read-out: EC50 (effective concentration that reduced 50% of viral cytopathic effect), HCoV-229E in MRC-5 cells, 6 days, triplicate data points): 0.07 µM; TC50 (toxic concentration that killed 50% of MRC-5 cells) ([2]; listed as Remdesivir): > 2.0 µM; TC50 (toxic concentration that killed 50% of MRC-5 cells) ([2]; listed as remdesivir): > 2.00 µM; TC50 (toxic concentration that killed 50% of MRC-5 cells) ([2]; listed as remdesivir (1)): > 2 ± 0 µM
CCCCCCCCCCCCCC(=O)OC[C@@H]1O[C@H](n2ccc(N)nc2=O)CS1 [5′-O-(tetradecanoyl)3TC (7), 5′-O-(tetradecanoyl)3TC] | > 47.5 µM | 47.5 µM | – | TC50 (toxic concentration that killed 50% of MRC-5 cells) ([2]; listed as 7): 45.4 to 55.3 µM
Nc1nc(=O)n([C@H]2CS[C@@H](CO)O2)cc1F [FTC (8), 2′,3′-dideoxy-5-fluoro-3′-thiacytidine] | > 100 µM | > 100 µM | not active | –
CCCCCCCCCCCCCC(=O)OC[C@@H]1O[C@H](n2cc(F)c(N)nc2=O)CS1 [5′-O-(tetradecanoyl)FTC (9), 5′-O-(tetradecanoyl)FTC] | 72.8 µM | 87.5 µM | – | Therapeutic Index (TC50/EC50) [1]: 1.20; Therapeutic Index (TC50/EC50) [1, 4]: 1.2; TC50 (toxic concentration that killed 50% of MRC-5 cells) [2, 4]: 87.5 ± 1.34 µM
Cc1cn([C@H]2C[C@H](F)[C@@H](CO)O2)c(=O)[nH]c1=O [FLT (4), 3′-Fluoro-3′-deoxythymidine] | > 100 µM | > 100 µM | not active | –
C#C[C@]1(CO)O[C@@H](n2cnc3c(N)nc(F)nc32)C[C@@H]1O [EFdA (3), 4′-ethynyl-2-fluoro-2′-deoxyadenosine] | > 55.3 µM | 55.3 µM | – | TC50 (toxic concentration that killed 50% of MRC-5 cells) ([2]; listed as 3): 45.4 to 55.3 µM
CCSCCCCCCCCCCCC(=O)OC[C@H]1O[C@@H](n2cc(C)c(=O)[nH]c2=O)C[C@@H]1F [5′-O-(12-thioethydodecanoyl)FLT (5), 5′-O-(12-thioethydodecanoyl)FLT] | > 45.4 µM | 45.4 µM | – | TC50 (toxic concentration that killed 50% of MRC-5 cells) ([2]; listed as 5): 45.4 to 55.3 µM
Nc1ccn([C@H]2CS[C@@H](CO)O2)c(=O)n1 [3TC (6), 2′,3′-Dideoxy-3′-thiacytidine] | > 100 µM | > 100 µM | not active | –
C[C@H](Cn1cnc2c(N)ncnc21)OCP(=O)(O)O [TFV (2), Tenofovir] | > 100 µM | > 100 µM | – | –
